Results from patent publication US20210045385A1, “PYRIDAZINONE-SUBSTITUTED KETOXIMES AS HERBICIDES” (FMC Corporation, priority 2018, published 2021).

What was measured:
Assay type in all cases: in vivo
[1] = system: Italian ryegrass (Lolium mutiflorum); assay: Test C preemergence, visual plant response rating; details: 1000 g ai/ha
From the text: (§1) Seeds of plant species selected from barnyardgrass (Echinochloa crus-galli), kochia (Bassia scoparia), ragweed (common ragweed, Ambrosia artemisiifolia), Italian ryegrass (Lolium mutiflorum), foxtail, giant (giant foxtail, Setaria faberi), foxtail, green (green foxtail, Setaria viridis), and pigweed (Amaranthus retroflexus) were planted into a blend of loam soil and sand and treated preemergence with a directed soil spray using test chemicals formulated in anon-phytotoxic solvent mixture which included a surfactant.
(§2) At the same time, plants selected from these weed species and also wheat (Triticum aestivum), corn (Zea mays), blackgrass (Alopecurus myosuroides), and galium (catchweed bedstraw, Galium aparine) were planted in pots containing the same blend of loam soil and sand and treated with post emergence applications of test chemicals formulated in the same manner. Plants ranged in height from 2 to 10 cm and were in the one- to two-leaf stage for the postemergence treatment. Treated plants and untreated controls were maintained in a greenhouse for approximately 10 d, after which time all treated plants were compared to untreated controls and visually evaluated for injury. Plant response ratings, summarized in Table C, are based on a 0 to 100 scale where 0 is no effect and 100 is complete control. A dash (-)response means no test result.

[2] = system: barnyardgrass (Echinochloa crus-galli); assay: Test C preemergence, visual plant response rating; details: 1000 g ai/ha
From the text: as §1, §2

[3] = system: foxtail, giant (giant foxtail, Setaria faberi); assay: Test C preemergence, visual plant response rating; details: 1000 g ai/ha
From the text: as §1, §2

kochia (Bassia scoparia) [4] = assay: Test C preemergence, visual plant response rating; details: 1000 g ai/ha
From the text: as §1, §2

[5] = system: pigweed (Amaranthus retroflexus); assay: Test C preemergence, visual plant response rating; details: 1000 g ai/ha
From the text: as §1, §2

[6] = system: ragweed (common ragweed, Ambrosia artemisiifolia); assay: Test C preemergence, visual plant response rating; details: 1000 g ai/ha
From the text: as §1, §2

[7] = system: Italian ryegrass (Lolium mutiflorum); assay: Test C postemergence, visual plant response rating; details: Test C, postemergence, 1000 g ai/ha
From the text: as §1, §2

[8] = system: barnyardgrass (Echinochloa crus-galli); assay: Test C postemergence, visual plant response rating; details: Test C, postemergence, 1000 g ai/ha
From the text: as §1, §2

[9] = system: blackgrass (Alopecurus myosuroides); assay: Test C postemergence, visual plant response rating; details: Test C, postemergence, 1000 g ai/ha
From the text: as §1, §2

corn (Zea mays) = assay: Test C postemergence, visual plant response rating; details: Test C, postemergence, 1000 g ai/ha
From the text: as §1, §2

[10] = system: foxtail, giant (giant foxtail, Setaria faberi); assay: Test C postemergence, visual plant response rating; details: Test C, postemergence, 1000 g ai/ha
From the text: as §1, §2

[11] = system: galium (catchweed bedstraw, Galium aparine); assay: Test C postemergence, visual plant response rating; details: Test C, postemergence, 1000 g ai/ha
From the text: as §1, §2

kochia (Bassia scoparia) [12] = assay: Test C postemergence, visual plant response rating; details: Test C, postemergence, 1000 g ai/ha
From the text: as §1, §2

[13] = system: pigweed (Amaranthus retroflexus); assay: Test C postemergence, visual plant response rating; details: Test C, postemergence, 1000 g ai/ha
From the text: as §1, §2

[14] = system: ragweed (common ragweed, Ambrosia artemisiifolia); assay: Test C postemergence, visual plant response rating; details: Test C, postemergence, 1000 g ai/ha
From the text: as §1, §2

[15] = system: wheat (Triticum aestivum); assay: Test C postemergence, visual plant response rating; details: Test C, postemergence, 1000 g ai/ha
From the text: as §1, §2

Compound | Ryegrass, Italian plant response rating (0 to 100 scale) [1] | Barnyardgrass plant response rating (0 to 100 scale) [2] | Foxtail, Giant plant response rating (0 to 100 scale) [3] | Kochia plant response rating (0 to 100 scale) (kochia (Bassia scoparia) [4]) | Pigweed plant response rating (0 to 100 scale) [5] | Ragweed plant response rating (0 to 100 scale) [6] | Ryegrass, Italian plant response rating (0 to 100 scale) [7] | Barnyardgrass plant response rating (0 to 100 scale) [8] | Blackgrass plant response rating (0 to 100 scale) [9] | Corn plant response rating (0 to 100 scale) (corn (Zea mays)) | Foxtail, Giant plant response rating (0 to 100 scale) [10] | Galium plant response rating (0 to 100 scale) [11] | Kochia plant response rating (0 to 100 scale) (kochia (Bassia scoparia) [12]) | Pigweed plant response rating (0 to 100 scale) [13] | Ragweed plant response rating (0 to 100 scale) [14] | Wheat plant response rating (0 to 100 scale) [15]
CCO/N=C(/c1c(O)cnn(C)c1=O)c1cccc2ccccc12 [Compound 225] | 0 | 0 | 60 | 10 | 80 | 40 | 0 | 10 | 20 | 0 | 20 | 90 | 10 | 60 | 70 | 0
CO/N=C(/c1c(O)cnn(C)c1=O)c1cccc2ccccc12 [Compound 237] | 0 | 0 | 60 | 30 | 90 | 20 | 10 | 0 | 10 | 0 | 0 | 100 | 80 | 90 | 30 | 0
CO/N=C(\c1c(O)cnn(C)c1=O)c1cccc2ccccc12 [Compound 238] | 20 | 0 | 40 | 30 | 100 | 90 | 0 | 20 | 20 | 0 | 40 | 90 | 80 | 90 | 30 | 0
